Measured values taken from patent US9005981B2, “Assays utilizing nicotinic acetylcholine receptor subunits” (priority 2008, dated 2015).
Like-named read-outs stand apart in the source and are kept apart here.

Legend:
[1] = tested on: D α6 and C. elegans ric3 expressed in D.Mel-2 cells; format: binding, Drosophila melanogaster
Protocol: D.Mel-2 cells were seeded into 75 cm^2 flasks at 1.9×10^7 cells/flask in Drosophila SFM containing antibiotic/antimicotic and incubated overnight at 27° C. The transfection mix was prepared in 12×75 mm polystyrene tubes by mixing 1630 μl sterile water, 40 μg pIB/V5-HisA/ric3, 40 μg pIB/V5-HisA/30D and 250 μl CellFectin. The reagents were mixed gently and incubated at room temp for 15 minutes. While the transfection mix was incubating, the cells were washed with 10 ml fresh Drosophila SFM without antibiotics; this media was then removed from the cells and replaced with 6 ml fresh Drosophila SFM without antibiotics. To the transfection mix was added 4 ml Drosophila SFM without antibiotics and this was then transferred to the flask. The reagents were gently mixed by pipetting up and down and then incubated overnight at 27° C.
D.Mel-2 cells were purchased from Invitrogen (Carlsbad, Calif.) and grown in disposable 125 ml shake flasks using 50 ml volume. Cells were subcultured to 3×10^5 cells/ml twice per week in Drosophila SFM containing 5 ml/L Antibiotic-Antimycotic (100×) (Gibco, Carlsbad, Calif.). D.Mel-2 cells were seeded into a 12-well plate at a cell density of 5×10^5 cells/well and incubated overnight at 27° C. In a 12×75 mm polystyrene tube 6 μg pIB/V5-HisA/ric3, 82 μl sterile H2O and 12 μl CellFectin (Invitrogen, Carlsbad, Calif.) were added. The sample was mixed gently and incubated at room temperature for 15 minutes. While the transfection mix was incubating, media from one well of cells was removed and replaced with 1 ml fresh media without antibiotics. After 15 minutes, the media was removed from cells. To this transfection mix, 0.5 ml media (no antibiotics) was added. This solution was then added to the cells. The mixture was incubated for 48 hrs at 27° C. After 48 hrs, the cells were scraped from the plate using a cell scraper and split into 4 wells of a 6-well plate each containing 2 ml Drosophila SFM with antibiotics. Cells were allowed to attach for 1 hr at 27° C.; the media was removed and replaced with 2 ml fresh media containing 25 μg/ml Blasticidin S (Invitrogen, Carlsbad, Calif.). Cells were incubated at 27° C. for 5 days. After 5 days, the cells were scraped loose from the wells and combined into one tube. Cells were spun down at 600 rpm in a tabletop centrifuge; the media was removed and the cells were resuspended into a 50 ml shake culture in fresh Drosophila SFM containing 25 μg/ml Blasticidin S. The cells were incubated at 27° C./140 rpm. Cells were subcultured twice weekly back to cell density of 3×10^5 cells/ml. After 4 weeks the selection was cut back to 10 μg/ml Blasticidin S. After 3 months of growth under selection, a 12 well plate was seeded at 5×10^5 cells/well and cells were incubated over night at 27° C. The following reagents were added to each of three 12×75 mm polystyrene tubes: 2 μg pMT/V5-HisA/30D, 0.15 μg pCoHygro (Invitrogen, Carlsbad, Calif.) (a […] ratio of expression plasmid:selection plasmid), 89 μl sterile H2O and 12 μl CellFectin. The samples were mixed gently and incubated at room temp for 15 minutes and then transfected as described above. After 24 hrs, the media containing transfection mix was removed and replaced with 1 ml fresh media containing antibiotics. The incubation was continued at 27° C. for another 24 hrs. Cells were scraped loose from the 12-well plate (3 wells) and split into 2, 6-well plates. Cells were allowed to attach for 6 hours at which point, the media was replaced with 2 ml/well fresh media containing 200, 150, 100 or 50 μg/ml hygromycin B. The incubation was continued at 27° C.; every 4-5 days, the media was replaced with media containing hygromycin every 4-5 days. After 2 weeks of selection in the plates, the cells from the 200 μg/ml selection, were scraped loose and then gently pelleted and resuspended in 25 ml fresh media containing 200 μg/ml hygromycin B and then placed into a 125 ml shake flask.

[2] = tested on: Drosophila melanogaster flies of the Oregon wild-type strain; test: Fly mortality screen, wild-type flies; format: in vivo; conditions: 100 ppm in 10% sucrose via cotton wicks, 72 hours post-treatment
Protocol: (§1) Ten adult Drosophila melanogaster flies (5 males and 5 females) of the Oregon wild-type strain and ten adult flies of a spinosyn-resistant strain were used per treatment. Two sets (of 10 flies) were set-up per treatment. Stocks of spinosyn A and a 21-butenyl-spinosyn analog were formulated at 1000 ppm in 2:1 acetone:water and then diluted to the required concentration in 10% sucrose. Vials received 500 ul of treatment (or solvent for controls) via cotton wicks (approximately ¼ inch) and flies were added to each vial and capped with a cotton plug. Flies were monitored over 72 hours post-treatment while being maintained at room-temperature with a 12:12 light:dark cycle.
(§2) In addition, the spinosyn A resistant flies were >100-fold resistant (based on LD50) to the new class of spinosyns, represented by the 21-butenyl spinosyns.

[3] = tested on: Drosophila melanogaster flies of a spinosyn-resistant strain; test: Fly mortality screen, spinosyn-resistant flies; format: in vivo; conditions: for mortality: 100 ppm in 10% sucrose via cotton wicks, 72 hours post-treatment, spinosyn-resistant flies; for resistance of spinosyn A resistant flies compared to wild-type flies (based on LD50): dose-response data, LD50 resistant vs wild-type
Protocol: as §1, §2

34E/ric-3 = format: cell-based, Drosophila melanogaster; further: key: '−' indicates a negligible current was induced; '+' indicates a small amplitude current; '++' indicates a moderate amplitude current; '++++' indicates a large amplitude current
Protocol: (§3) Xenopus laevis (Xenopus 1, Ann Arbor, Mich.; Nasco, Fort Atkinson, Wis.) were anesthetized by bathing in a solution of 2 g/l tricaine methane sulfonate, and oocytes were surgically removed from the frog and placed in a culture solution that consisted of 96 mM NaCl, 2 mM KCl, 1.8 mM CaCl2, 1 mM MgCl2, 5 mM HEPES, 2.5 mM Na-pyruvate, 100 units/ml penicillin, and 0.1 mg/ml streptomycin, pH 7.6. Oocytes were dispersed in a nominally zero Ca^2+ protease treatment solution to defolliculate the oocytes. The protease treatment solution consisted of either 88 mM NaCl, 2.5 mM KCl, 1 mM MgCl2, 5 mM HEPES, 2.5 mM Na-pyruvate, 100 units/ml penicillin, and 0.1 mg/ml streptomycin, pH 7.6 plus 1.5 mg/ml collagenase IA (Sigma Chemical Co., St. Louis, Mo.). After isolation, the oocytes were thoroughly rinsed and returned to the above Ca^2+ containing culture solution and stored at 18° C.
(§4) Synthesis of cRNA was performed as follows: Plasmid DNA was linearized with one of the following restriction enzymes; Not I, Xho I or Nhe I. The linearized DNA was subsequently used as template for cRNA synthesis using T7 mMessage mMachine kit (Ambion, Austin, Tex.) following the manufacturer's instructions.
(§5) Micropipettes for injection of cRNA into Xenopus oocytes were pulled on a DMZ-Universal Puller (Zeitz-Instruments, München, Germany). The cRNA to be injected was drawn up into the micropipette with negative pressure. Approximately 10-50 ng of cRNA was injected into the oocytes by applying positive pressure using a Nanoject II oocyte injector (Drummond Scientific Co., Broomall, Pa.). Nucleic acid was introduced into the oocytes as follows: (1) nicotinic acetylcholine receptor alpha-6 subunit subunit (30D) (2) nicotinic alpha-7 receptor subunit (34E); (3) nicotinic acetylcholine receptor alpha-6 subunit and C. elegans ric-3 (30D and ric-3); (4) nicotinic alpha-7 receptor subunit and C. elegans ric-3 (34E and ric-3); (5) nicotinic acetylcholine receptor alpha-6 subunit and nicotinic alpha-7 receptor subunit (30D and 34E); and, (6) nicotinic acetylcholine receptor alpha-6 subunit, nicotinic alpha-7 receptor subunit and C. elegans ric-3 (30D, 34E and ric-3).
(§6) The control external solution for voltage clamp recordings consisted of 88 mM NaCl, 1 mM KCl, 0.41 mM CaCl2, 2.4 mM NaHCO3, 0.3 mM Ca(NO3)2, 0.82 mM MgSO4.7H2O, and 15 mM HEPES, pH 7.6. The recording chamber was continuously perfused with a gravity-fed perfusion system. Nicotine (1 mM) was added to the external solution and then added to the perfusate for 30 seconds. Then, nicotine was washed from the external solution a minimum of 10 minutes. Thereafter, spinosyn A was dissolved in dimethylsulfoxide (DMSO) and then dissolved in the external solution at a final concentration of 10 μM and then added to the perfusate for 60 seconds. Then, the spinosyn A was washed from the external solution. The final concentration of DMSO never exceeded 0.1% (v/v).

[4] = tested on: nicotinic acetylcholine receptor alpha-5 subunit (34E); format: cell-based, Drosophila melanogaster; further: key: '−' indicates a negligible current was induced; '+' indicates a small amplitude current; '++' indicates a moderate amplitude current; '++++' indicates a large amplitude current
Protocol: as §3, §4, §5, §6

[5] = tested on: nicotinic acetylcholine receptor alpha-6 subunit (30D); format: cell-based, Drosophila melanogaster; further: key: '−' indicates a negligible current was induced; '+' indicates a small amplitude current; '++' indicates a moderate amplitude current; '++++' indicates a large amplitude current
Protocol: as §3, §4, §5, §6

Dα6-nicotinic receptor = format: binding, Drosophila melanogaster
Protocol: Xenopus oocytes were injected as previously described for the electrophysiological assay and were used intact for binding assays.
Two main radioligands were used in binding assays: the conventional α7 radioligand, [^3]methyllycaconitine (MLA) and [^3]dihydrospinosyn A (DHSA). For both radioligands, the Binding Buffer used consisted of 10 mM sodium phosphate (7.2-7.4). All experiments using D.Mel-2 cell suspensions were carried out with 50 μl of cell suspension. For Xenopus oocyte binding assays, oocytes were pooled (2-5 oocytes) and transferred to 1 ml Binding Buffer. This was followed by gently aspirating the Binding Buffer and replacing with fresh Binding Buffer twice, to wash out any residual oocyte bathing media. The final volume of buffer added to each pool of oocytes was 50-100 μl. […] Subsequent dilutions were made in Binding Buffer. The final concentration of solvent was maintained at less than 0.1% in each well. […] For the cell extracts, bound radioactivity and free radioactivity fractions were separated by gentle vacuum through GF/C glass fiber filter mats using a TomTec (CT) 96-well cell harvester. […] Filter mats were dried in an oven at 60° C. and the radioactivity from samples was counted for three minutes with a Wallac MicroBeta Counter (Wallac, Conn.) using Meltilex solid-scintillant (PerkinElmer, Finland). […]

30D/ric-3 = format: cell-based, Drosophila melanogaster; conditions: spinosyn A 10 μM for 60 seconds, oocytes clamped to −60 mV, peak current
Protocol: as §3, §4, §5, §6

34E/30D/ric-3 = format: cell-based, Drosophila melanogaster; parameters: key to the marks not given beside the values; conditions: spinosyn A 10 μM for 60 seconds, oocytes clamped to −60 mV, peak current
Protocol: as §3, §4
(§7) Micropipettes for injection of cRNA into Xenopus oocytes were pulled on a DMZ-Universal Puller (Zeitz-Instruments, München, Germany). […]

34E/30D = format: cell-based, Drosophila melanogaster; parameters: key to the marks not given beside the values; conditions: spinosyn A 10 μM for 60 seconds, oocytes clamped to −60 mV, peak current
Protocol: as §3, §4, §7

[6] = D.Mel-2 cells expressing D α6 and C. elegans ric3
Wherever Spinosyn A Response is given: key: '−' indicates a negligible current was induced; '+' indicates a small amplitude current; '++' indicates a moderate amplitude current; '++++' indicates a large amplitude current.

With `CN1COCN(Cc2cnc(Cl)s2)/C1=N\[N+](=O)[O-]` [thiamethoxam] the “displacement of [3H]DHSA binding” value [1, 6] was “did not significantly displace”.

For `CC[C@H]1CCC[C@H](O[C@H]2CC[C@H](N(C)C)[C@@H](C)O2)[C@@H](C)C(=O)C2=C[C@H]3[C@@H]4C[C@H](O[C@@H]5O[C@@H](C)[C@H](OC)[C@@H](OC)[C@H]5OC)C[C@H]4CC[C@H]3[C@@H]2CC(=O)O1` [dihydrospinosyn A], the “displacement of [3H]DHSA binding” value [1, 6] was “significant displacement”.

With 21-butenyl spinosyn the mortality [2] was “all wild-type flies exhibited mortality”, the mortality [3] was “no significant mortality” and the “resistance of spinosyn A resistant flies compared to wild-type flies (based on LD50)” value [3] was > 100 fold.

`CCN1C[C@]2(COC(=O)c3ccccc3N3C(=O)C[C@H](C)C3=O)CC[C@H](OC)[C@@]34[C@@H]5C[C@H]6[C@H](OC)[C@@H]5[C@](O)(C[C@@H]6OC)[C@@](O)([C@@H](OC)[C@H]23)[C@@H]14` [MLA, methyllycaconitine] was tested, and the “displacement of [3H]DHSA binding” value [1, 6] was “can be demonstrated at higher concentrations” and the “overall affinity for this receptor complex” value ([1]; [3H]DHSA binding assay, D.Mel-2 cells) was “relatively poor”.

With `CN1CCCC1c1cccnc1` (centres unmarked) [Nicotine, nicotine] the “Nicotine Response” value (34E/ric-3) was “+”, the “Nicotine Response” value [4] was “+” and the “Nicotine Response” value [5] was “−”. For the same compound, the “% Displacement of Total Binding” value (Dα6-nicotinic receptor) was 72% and the “displacement of [3H]DHSA binding” value [1] was “displacement”.

`Clc1ccc(C2CC3CCC2N3)cn1` (centres unmarked) [epibatidine] was tested, and the “displacement of [3H]DHSA binding” value [1, 6] was “did not significantly displace”.

`NS(=O)(=O)c1cc(C(=O)O)c(NCc2ccco2)cc1Cl` [furosemide] was tested, and the “displacement of [3H]DHSA binding” value [1] was “No significant displacement”.

With `CC[C@H]1CCC[C@H](O[C@H]2CC[C@H](N(C)C)[C@@H](C)O2)[C@@H](C)C(=O)C2=C[C@@H]3[C@@H](C=C[C@@H]4C[C@@H](O[C@@H]5O[C@@H](C)[C@H](OC)[C@@H](OC)[C@H]5OC)C[C@@H]34)[C@@H]2CC(=O)O1` [Spinosyn A, spinosyn A] the “Spinosyn A Response” value (30D/ric-3) was “+”, the “Spinosyn A Response” value (34E/ric-3; 34E/ric-3, spinosyn A 10 μM for 60 seconds, oocytes clamped to −60 mV, peak current) was “−” and the “Spinosyn A Response” value ([4]; 34E, spinosyn A 10 μM for 60 seconds, oocytes clamped to −60 mV, peak current) was “−”. For the same compound, the “Spinosyn A Response” value ([5]; 30D, spinosyn A 10 μM for 60 seconds, oocytes clamped to −60 mV, peak current) was “−”, the “Spinosyn A Response” value (34E/30D/ric-3) was “++++” and the “Spinosyn A Response” value (34E/30D) was “++”. For the same compound, the “% Displacement of Total Binding” value (Dα6-nicotinic receptor; 10 μM, [3H]MLA, intact Xenopus oocytes 3 days post-injection with Dmα6) was 72%, the “displacement of [3H]DHSA binding” value [1, 6] was “significant displacement” and the mortality [2] was “all wild-type flies exhibited mortality”. The mortality [3] was “no significant mortality” and the “resistance of spinosyn A resistant flies compared to wild-type flies (based on LD50)” value [3] was “at least 100 fold”.

With `CN1[C@@H](CC(=O)c2ccccc2)CCC[C@H]1C[C@H](O)c1ccccc1` [lobeline] the “displacement of [3H]DHSA binding” value [1, 6] was “did not significantly displace”.

For alpha-bungarotoxin, the “displacement of [3H]DHSA binding” value [1] was “can be demonstrated at higher concentrations” and the “overall affinity for this receptor complex” value [1] was “relatively poor”.

In the case of `CC[C@H]1CCC[C@H](O)[C@@H](C)C(=O)C2=C[C@@H]3[C@@H](C=C[C@@H]4C[C@@H](O[C@@H]5O[C@@H](C)[C@H](OC)[C@@H](OC)[C@H]5OC)C[C@@H]34)[C@@H]2CC(=O)O1` [pseudoagylcone of spinosyn A], the “displacement of [3H]DHSA binding” value [1, 6] is reported as “Nor was there significant displacement”.

For `C[N+](C)(C)CCOC(N)=O.[Cl-]` [carbamylcholine], the “displacement of [3H]DHSA binding” value [1, 6] was “did not significantly displace”.

For `O=[N+]([O-])NC1=NCCN1Cc1ccc(Cl)nc1` [imidacloprid], the “displacement of [3H]DHSA binding” value [1, 6] was “did not significantly displace”.

For `C[C@H](O)[C@H](O)[C@@H](O)[C@@H](O)C=O` [rhamnose], the “displacement of [3H]DHSA binding” value [1, 6] was “No significant displacement”.
